Measurements reported in patent publication US20060069132A1, “Azolecarboxamide herbicides” (priority 2004, published 2006).

Tests used:
Surinam grass = assay: Test B pre-/postemergence herbicide test; format: in vivo, Urochloa decumbens
In short: (§1)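 Formulation: non-phytotoxic solvent mix with surfactant. Timing: preemergence on seed and postemergence on 2–18 cm plants, applied concurrently. Readout after 13–15 d greenhouse: visual 0–100 control rating against controls.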

lambsquarters = assay: Test B pre-/postemergence herbicide test; format: in vivo, Chenopodium album
In short: as §1

wild oat = assay: Test B postemergence herbicide test; format: in vivo, Avena fatua
In short: (§2)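 After treating 2-leaf paddy plants or 2–18 cm postemergence plants (1 to 4 leaves) with formulated chemical, researchers kept them in a greenhouse for 13–15 days. Effects were judged visually versus controls: 0 indicates none, 100 total control.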

velvetleaf = assay: Test B pre-/postemergence herbicide test; format: in vivo, Abutilon theophrasti
In short: as §1

giant foxtail = assay: Test B pre-/postemergence herbicide test; format: in vivo, Setaria faberi
In short: as §1

cocklebur = assay: Test B pre-/postemergence herbicide test; format: in vivo, Xanthium strumarium
In short: (§3)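 Herbicidal effect was judged by eye on a 0–100 scale after plants stood 13 to 15 days in the greenhouse following pre- or postemergence treatment with surfactant-containing formulations.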

large crabgrass = assay: Test B pre-/postemergence herbicide test; format: in vivo, Digitaria sanguinalis
In short: as §1

rice = assay: Test B flooded paddy test; format: in vivo, Oryza sativa; conditions: scale 0 to 100 (0 no effect, 100 complete control)
In short: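 Scale 0–100: zero equals no visible effect, 100 complete control, judged by eye relative to controls. Timing: 13 to 15 days in greenhouse post-treatment. Growth stage at spraying: two leaves (paddy) or one to four leaves, 2–18 cm (postemergence).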

blackgrass = assay: Test B postemergence herbicide test; format: in vivo, Alopecurus myosuroides
In short: (§4)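 Treated at 2-leaf (paddy) or 1–4-leaf, 2–18 cm (postemergence); greenhouse 13–15 d; visual score vs control, 0 none to 100 complete control; dash = not tested.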

pigweed = assay: Test B pre-/postemergence herbicide test; format: in vivo, Amaranthus retroflexus
In short: as §1

corn = assay: Test B pre-/postemergence herbicide test; format: in vivo, Zea mays
In short: as §1

[1] = tested on: small flower umbrella sedge; assay: Test B flooded paddy test; format: in vivo, Cyperus difformis; conditions: scale 0 to 100 (0 no effect, 100 complete control)
In short: as §4

ducksalad = assay: Test B flooded paddy test; format: in vivo, Heteranthera limosa; conditions: scale 0 to 100 (0 no effect, 100 complete control)
In short: as §4

barnyardgrass [2] = assay: Test B flooded paddy test; format: in vivo, Echinochloa crus-galli; conditions: scale 0 to 100 (0 no effect, 100 complete control)
In short: as §4

wheat = assay: Test B postemergence herbicide test; format: in vivo, Triticum aestivum; set-up: key to Wheat plant response rating: 0 = no effect, 100 = complete control
In short: as §2

barnyardgrass [3] = assay: Test B pre-/postemergence herbicide test; format: in vivo, Echinochloa crus-galli
In short: as §3

morningglory = assay: Test B pre-/postemergence herbicide test; format: in vivo, Ipomoea coccinea
In short: as §3

[4] = 500 g ai/ha, visual rating 0-100, 0 no effect, 100 complete control, preemergence
[5] = Postemergence, 500 g ai/ha, visual rating after 13 to 15 days, scale 0 (no effect) to 100 (complete control)
[6] = postemergence, 125 g ai/ha, visual rating, scale 0 (no effect) to 100 (complete control)
[7] = preemergence, 125 g ai/ha, 0 to 100 scale, 0 is no effect, 100 is complete control
[8] = 1000 g ai/ha, visual rating, 13 to 15 days
[9] = Postemergence, 500 g ai/ha, scale 0 (no effect) to 100 (complete control)
[10] = postemergence, 125 g ai/ha, scale 0 to 100
[11] = 500 g ai/ha, scale 0 to 100, 0 no effect, 100 complete control, preemergence
[12] = 125 g ai/ha, 0 is no effect, 100 is complete control, preemergence
[13] = 125 g ai/ha, visual rating, scale 0 (no effect) to 100 (complete control), postemergence
[14] = postemergence, 500 g ai/ha, scale 0 to 100, 0 is no effect, 100 is complete control

CCCn1nc(C(C)(C)C)cc1C(=O)Nc1cccc(C(C)=NO)c1 [Compound 113]
90: Lambsquarters plant response rating (lambsquarters; [6]) | Pigweed plant response rating (pigweed; [6]) | Sedge, Umbrella plant response rating [1, 8] | Ducksalad plant response rating (ducksalad; [8]) | Plant response rating, Barnyardgrass (barnyardgrass [3]; [4])
50: Plant response rating, Morningglory (morningglory; [4])
10: Plant response rating, Surinam Grass (Surinam grass; [4]) | Plant response rating, Surinam Grass (Surinam grass; [7]) | Plant response rating, Foxtail, Giant (giant foxtail; [7]) | Blackgrass plant response rating (blackgrass; [6]) | Wheat plant response rating (wheat; [6])
70: Barnyardgrass plant response rating (barnyardgrass [2]; [8])
30: Plant response rating, Foxtail, Giant (giant foxtail; [4]) | Foxtail, Giant plant response rating (giant foxtail; [6]) | Crabgrass, Large plant response rating (large crabgrass; [6]) | Plant response rating, Corn (corn; [5]) | Corn plant response rating (corn; [6]) | Plant response rating, Wheat (wheat; [5]) | Barnyardgrass plant response rating (barnyardgrass [3]; [6])
60: Plant response rating, Surinam Grass (Surinam grass; [5]) | Plant response rating, Oat, Wild (wild oat; [5]) | Plant response rating, Velvetleaf (velvetleaf; [5]) | Rice plant response rating (rice; [8]) | Plant response rating, Barnyardgrass (barnyardgrass [3]; [7])
40: Surinam Grass plant response rating (Surinam grass; [6]) | Oat, Wild plant response rating (wild oat; [6]) | Plant response rating, Foxtail, Giant (giant foxtail; [5])
100: Plant response rating, Lambsquarters (lambsquarters; [4]) | Plant response rating, Lambsquarters (lambsquarters; [5]) | Plant response rating, Cocklebur (cocklebur; [5]) | Cocklebur plant response rating (cocklebur; [6]) | Plant response rating, Crabgrass, Large (large crabgrass; [4]) | Plant response rating, Crabgrass, Large (large crabgrass; [7]) | Plant response rating, Pigweed (pigweed; [4]) | Plant response rating, Pigweed (pigweed; [5]) | Plant response rating, Morningglory (morningglory; [5])
20: Plant response rating, Velvetleaf (velvetleaf; [4]) | Velvetleaf plant response rating (velvetleaf; [6]) | Plant response rating, Velvetleaf (velvetleaf; [7]) | Plant response rating, Cocklebur (cocklebur; [4]) | Plant response rating, Blackgrass (blackgrass; [5]) | Morningglory plant response rating (morningglory; [6])
80: Plant response rating, Lambsquarters (lambsquarters; [7]) | Plant response rating, Crabgrass, Large (large crabgrass; [5]) | Plant response rating, Barnyardgrass (barnyardgrass [3]; [5])
0: Plant response rating, Cocklebur (cocklebur; [7]) | Plant response rating, Pigweed (pigweed; [7]) | Plant response rating, Corn (corn; [4]) | Plant response rating, Corn (corn; [7]) | Plant response rating, Morningglory (morningglory; [7])

Cc1nn(C(C)(C)C)nc1C(=O)Nc1cccc(C(=O)N(C)C)n1 [Compound 436]
10: Oat, Wild plant response rating (wild oat; [10]) | Cocklebur plant response rating (cocklebur; [9]) | Pigweed plant response rating (pigweed; [9]) | Corn plant response rating (corn; [9]) | Wheat plant response rating (wheat; [10])
0: Surinam Grass plant response rating (Surinam grass; [9]) | Surinam Grass plant response rating (Surinam grass; [10]) | Lambsquarters plant response rating (lambsquarters; [9]) | Lambsquarters plant response rating (lambsquarters; [10]) | Velvetleaf plant response rating (velvetleaf; [10]) | Foxtail, Giant plant response rating (giant foxtail; [9]) | Foxtail, Giant plant response rating (giant foxtail; [10]) | Cocklebur plant response rating (cocklebur; [10]) | Crabgrass, Large plant response rating (large crabgrass; [9]) | Crabgrass, Large plant response rating (large crabgrass; [10]) | Rice plant response rating (rice; 125 g ai/ha) | Blackgrass plant response rating (blackgrass; [9]) | Blackgrass plant response rating (blackgrass; [10]) | Pigweed plant response rating (pigweed; [10]) | Corn plant response rating (corn; [10]) | Sedge, Umbrella plant response rating ([1]; 125 g ai/ha) | Ducksalad plant response rating (ducksalad; 125 g ai/ha) | Barnyardgrass plant response rating (barnyardgrass [2]; 125 g ai/ha) | Barnyardgrass plant response rating (barnyardgrass [3]; Postemergence, 125 g ai/ha, scale 0 (no effect) to 100 (complete control)) | Barnyardgrass plant response rating (barnyardgrass [3]; [9]) | Morningglory plant response rating (morningglory; [9]) | Morningglory plant response rating (morningglory; [10])
20: Wheat plant response rating (wheat; [11]) | Wheat plant response rating (wheat; [9])
30: Oat, Wild plant response rating (wild oat; [9]) | Velvetleaf plant response rating (velvetleaf; [9])

CCOC(=O)c1cccc(NC(=O)c2nn(C(C)C)nc2C)c1 [Compound 397]
70: Sedge, Umbrella plant response rating ([1]; 1000 g ai/ha)
40: Foxtail, Giant plant response rating (giant foxtail; [9])
10: Surinam Grass plant response rating (Surinam grass; [13]) | Surinam Grass plant response rating (Surinam grass; [9]) | Velvetleaf plant response rating (velvetleaf; [13]) | Foxtail, Giant plant response rating (giant foxtail; [13]) | Crabgrass, Large plant response rating (large crabgrass; [9]) | Rice plant response rating (rice; 1000 g ai/ha) | Corn plant response rating (corn; [9]) | Wheat plant response rating (wheat; [9]) | Morningglory plant response rating (morningglory; [9])
50: Velvetleaf plant response rating (velvetleaf; [9])
0: Plant response rating (0 to 100 scale), Surinam Grass (Surinam grass; [12]) | Lambsquarters plant response rating (lambsquarters; [13]) | Lambsquarters plant response rating (lambsquarters; [9]) | Oat, Wild plant response rating (wild oat; [13]) | Oat, Wild plant response rating (wild oat; [9]) | Plant response rating (0 to 100 scale), Velvetleaf (velvetleaf; [12]) | Plant response rating (0 to 100 scale), Foxtail, Giant (giant foxtail; [12]) | Plant response rating (0 to 100 scale), Cocklebur (cocklebur; [12]) | Cocklebur plant response rating (cocklebur; [13]) | Cocklebur plant response rating (cocklebur; [9]) | Plant response rating (0 to 100 scale), Crabgrass, Large (large crabgrass; [12]) | Crabgrass, Large plant response rating (large crabgrass; [13]) | Blackgrass plant response rating (blackgrass; [13]) | Blackgrass plant response rating (blackgrass; [9]) | Plant response rating (0 to 100 scale), Pigweed (pigweed; [12]) | Pigweed plant response rating (pigweed; [13]) | Pigweed plant response rating (pigweed; [9]) | Plant response rating (0 to 100 scale), Corn (corn; [12]) | Corn plant response rating (corn; [13]) | Ducksalad plant response rating (ducksalad; 1000 g ai/ha) | Barnyardgrass plant response rating (barnyardgrass [2]; 1000 g ai/ha) | Wheat plant response rating (wheat; [13]) | Wheat plant response rating (wheat; [11]) | Plant response rating (0 to 100 scale), Barnyardgrass (barnyardgrass [3]; [12]) | Barnyardgrass plant response rating (barnyardgrass [3]; [13]) | Barnyardgrass plant response rating (barnyardgrass [3]; [9]) | Plant response rating (0 to 100 scale), Morningglory (morningglory; [12]) | Morningglory plant response rating (morningglory; [13])

CCc1nn(C(C)(C)CC)nc1C(=O)Nc1cc(C(=O)N2CC=CC2)ccc1F [Compound 371]
70: Lambsquarters plant response rating (lambsquarters; [9]) | Morningglory plant response rating (morningglory; [9])
0: Surinam Grass plant response rating (Surinam grass; [13]) | Oat, Wild plant response rating (wild oat; [13]) | Plant response rating (0 to 100 scale), Velvetleaf (velvetleaf; [12]) | Plant response rating (0 to 100 scale), Cocklebur (cocklebur; [12]) | Crabgrass, Large plant response rating (large crabgrass; [13]) | Blackgrass plant response rating (blackgrass; [13]) | Plant response rating (0 to 100 scale), Pigweed (pigweed; [12]) | Plant response rating (0 to 100 scale), Corn (corn; [12]) | Wheat plant response rating (wheat; [13]) | Wheat plant response rating (wheat; [11]) | Plant response rating (0 to 100 scale), Barnyardgrass (barnyardgrass [3]; [12]) | Barnyardgrass plant response rating (barnyardgrass [3]; [13]) | Barnyardgrass plant response rating (barnyardgrass [3]; [14]) | Plant response rating (0 to 100 scale), Morningglory (morningglory; [12])
30: Cocklebur plant response rating (cocklebur; [14]) | Pigweed plant response rating (pigweed; [9]) | Barnyardgrass plant response rating (barnyardgrass [2]; 1000 g ai/ha)
90: Ducksalad plant response rating (ducksalad; 1000 g ai/ha)
10: Plant response rating (0 to 100 scale), Surinam Grass (Surinam grass; [12]) | Surinam Grass plant response rating (Surinam grass; [9]) | Oat, Wild plant response rating (wild oat; [9]) | Velvetleaf plant response rating (velvetleaf; [13]) | Plant response rating (0 to 100 scale), Foxtail, Giant (giant foxtail; [12]) | Foxtail, Giant plant response rating (giant foxtail; [13]) | Plant response rating (0 to 100 scale), Crabgrass, Large (large crabgrass; [12]) | Crabgrass, Large plant response rating (large crabgrass; [14]) | Pigweed plant response rating (pigweed; [13]) | Corn plant response rating (corn; [13]) | Corn plant response rating (corn; [14]) | Wheat plant response rating (wheat; [9])
40: Lambsquarters plant response rating (lambsquarters; [13]) | Rice plant response rating (rice; 1000 g ai/ha) | Morningglory plant response rating (morningglory; [13])
60: Sedge, Umbrella plant response rating ([1]; 1000 g ai/ha)
20: Velvetleaf plant response rating (velvetleaf; [9]) | Foxtail, Giant plant response rating (giant foxtail; [14]) | Cocklebur plant response rating (cocklebur; [13]) | Blackgrass plant response rating (blackgrass; [14])
